The values below are quoted from earlier work in US20090163599A1, “Mif adsorbant” (priority 2004, published 2009).

For the data set, the target named is T1, dopachrome tautomerase activity of MIF (Homo sapiens, UniProt P14174).
T1 sequence (P14174 2-115 limits assumed): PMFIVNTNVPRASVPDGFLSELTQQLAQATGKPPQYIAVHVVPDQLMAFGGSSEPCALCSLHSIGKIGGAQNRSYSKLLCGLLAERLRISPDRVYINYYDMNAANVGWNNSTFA
The following applies: known from Swope et al, J Biol Chem 273: 14877-14884, 1998.

As to `CCCCCCSC[C@H](NC(=O)CC[C@H](N)C(=O)O)C(=O)NCC(=O)O` [S-hexylglutathione], the “inhibiting effect on the dopachrome tautomerase activity of MIF” value was “strong inhibiting effect”. As for `CCCCCCS` [hexane thiol], the “inhibiting effect on the dopachrome tautomerase activity of MIF” value is recorded as “strong inhibiting effect”.
